Measured values taken from ChEMBL document CHEMBL4673354, “N-(Methyloxycarbonyl)thiophene sulfonamides as high affinity AT2 receptor ligands” (Bioorg Med Chem, 2021).

How the values were obtained:
[1] = Oral bioavailability in rat; assay type: ADME, organism-based; settings: in vivo
[2] = Apparent permeability across apical to basolateral side and basolateral to apical side in human Caco-2 cells at 5 uM measured up to 60 mins by LC-MS/MS analysis; assay type: ADME, cell-based

bioavailability [1] [%] | Papp at 1 h, 5 µM [2] [×10⁻⁶ cm/s] | Structure (SMILES)
33 | – | COc1ccc2c(c1OCc1ccccc1)CC(C(=O)O)N(C(=O)C(c1ccccc1)c1ccccc1)C2 (centres undefined)
– | 3.4 | CCCCOC(=O)NS(=O)(=O)c1sc(CC(C)C)cc1-c1cccc(Cn2ccnc2)c1
– | 0.4 | CCCCOC(=O)NS(=O)(=O)c1sc(CC(C)C)cc1-c1cccc(C(=O)Cn2cnc3cc(C)c(C)cc32)c1
– | 1.8 | COc1ccc2c(c1OCc1ccccc1)C[C@@H](C(=O)O)N(C(=O)C(c1ccccc1)c1ccccc1)C2 [OLODANRIGAN]
